Data as given in patent publication US20200009197A1, “COMPOSITIONS AND METHODS FOR THE REPROGRAMMING OF CELLS INTO CARDIOMYOCYTES” (Duke University, priority 2014, published 2020).

Columns and labels:
[1] = cited from earlier work
[2] = during controlled therapy; cited from earlier work
[3] = system: neonatal cardiac fibroblasts; test: qPCR of cardiac and pluripotency gene expression in neonatal cardiac fibroblasts (with or without miR combo transfection); format: cell-based, Mouse (C57BL/6)
Method: Mouse (C57BL/6) neonatal cardiac fibroblasts or tail tip fibroblasts were isolated from 2 day old mouse neonates according to known methods e.g., outlined in Jayawardena et al [Jayawardena T, Mirotsou M, Dzau V J. Direct reprogramming of cardiac fibroblasts to cardiomyocytes using microRNAs. Methods in molecular biology. 2014; 1150:263-272]. Cells were cultured in growth media containing DMEM (ATCC) supplemented with 15% v/v FBS and 1% v/v penicillin/streptomycin. Cells were used at passage 1 or passage 2.
Cells were seeded at 5000 cells/cm^2 in growth media. Twenty-four hours later growth media was replaced with chemically defined reprogramming media (Advanced DMEM/F12, 0.2% w/v BSA, 250 μM Ascorbic Acid, 1× Insulin-Transferrin-Selenium, 1× L-Glutamine, 1× Penicillin-Streptomycin). Fresh media was added every two days.
Fibroblasts were seeded into a 24 well-plate at 9,000 cells/well. […]
The GM comprises the following: DMEM (ATCC#30-2002), 15% v/v embryonic stem cell qualified fetal bovine serum, and 1× penicillin/streptomycin. […] Differentiation was assessed by qPCR, immunocytochemistry, and flow cytometry.

Structure (SMILES)	soluble to, in DMSO ([1]; DMSO) [mM]	soluble to, in ethanol [1] [mM]	other results
Cc1cccc(-c2nn(C(=S)Nc3ccccc3)cc2-c2ccnc3ccccc23)n1 [A83-01, 3-(6-Methyl-2-pyridinyl)-N-phenyl-4-(4-quinolinyl)-1H-pyrazole-1-c arbothioamide]	100	–	–
O=C(O)C=C(CCc1ccc(Cl)cc1)c1ccccc1 [PS48, 5-(4-Chloro-phenyl)-3-phenyl-pent-2-enoic acid]	–	–	solubility in DMSO ([1]; DMSO): soluble in DMSO
COC(=O)C1=C(C)NC(C)=C([N+](=O)[O-])[C@@H]1c1ccccc1C(F)(F)F [R(+)Bay K 8644, R-(+)-1,4-Dihydro-2,6-dimethyl-5-nitro-4-[2-(trifluoromethyl)phenyl]-3-pyridinecarboxylic acid methyl ester]	100	100	–
O=C(O)C(Cc1c[nH]c2ccccc12)N1C(=O)c2ccccc2C1=O (stereo not drawn) [RG108, 2-(1,3-Dioxo-1,3-dihydro-2H-isoindol-2-yl)-3-(1H-indol-3-yl)propionic acid]	100	100	–
CCCC(CCC)C(=O)O [Valproic acid, 2-propylpentanoic acid]	–	–	serum or plasma concentrations [2]: 20 to 100 mg/L
O=C1O[C@H]([C@@H](O)CO)C(O)=C1O [ascorbic acid]	–	–	effects of miR-combo upon cardiac gene expression ([3]; added to growth media): augmented; additive effect on cardiac gene expression at gene and protein level ([3]; increasing concentration): increased the additive effect
